# According to patent publication US11154589B2, “Antimicrobial composition combinations comprising star shaped peptide polymers” (The University of Melbourne, priority 2016, dated 2021):
# “And” between values parts separate entries of the source, which are not always exact repeats. Equal entries are not always repeated. Marks after values point to notes of the source that are not given here.
# What was measured:
# [1] = system: CMDR P. aeruginosa (FADDI-PA067); assay: S16-antibiotic co-administration, synergy by Bliss Independence and HSA models; assay type: cell-based, Pseudomonas aeruginosa
# Experimental: (§1) The 96-well plate was then incubated at 37° C. for 1.5 or 3 h. For each well, microbial solution was diluted with saline (0.9% NaCl solution) using an appropriate dilution factor and placed on a LB agar plate (LB broth containing 15 g/L Oxoid Blood Agar Base No. 2). For E. coli, K. pneumoniae, and A. Baumannii (ATCC 19606 and FADDI-AB156), the agar plates were incubated overnight at room temperature, and then at 37° C. with aeration for 2 h. For P. Aeruginosa (ATCC 47085 and FADDI-PA067), the agar plates were incubated at 37° C. with aeration. The number of colony-forming units (CFU) was counted and expressed as CFU/mL. Positive controls consisting of cells without any treatment were used. […] A minimum of two independent experiments (biological replicates) of the assay were conducted and three technical replicates were used in each experiment. Data is expressed as mean±standard deviation (SD) and analysed using student's t-test.
# (§2) The Bliss Independence and HSA models were used to calculate drug synergism. […] Biotechnol. 31, 160-165 (2013). With the Bliss Independence model, synergism was calculated using the formula, BICAB=A+B−AB (1), where A and B are the effects of the two drugs in isolation and BICAB is the combined effect of the two drugs as predicted by the Bliss Independence model. […] In the HSA model, if CAB is greater than the greater of A and B, CAB>max(A, B), synergy is observed. The quantitative effect of the compounds when administered alone (i.e., A and B) or in combination (i.e., CAB) was defined as the fractional reduction of the population, R=1−CFUt/CFU0, where CFUt is the CFU/mL measured after treatment, and CFU0 is the CFU/mL measured before treatment.
# [2] = system: CMDR A. baumannii (FADDI-AB156); assay: as above; assay type: cell-based, Acinetobacter baumannii
# Experimental: as §1, §2
# [3] = system: rat hepatoma (H4IIE) cells; assay: Apoptosis/necrosis assay (mammalian cell viability); settings: single agent at a dose equivalent to its MBC (against CMDR A. baumannii); 90 min incubation
# Experimental: Rat hepatoma cells (H4IIE) were cultivated in DMEM medium (supplemented with 10% FBS, 1× GlutaMAX™, and 1× penicillin-streptomycin) in a humidified atmosphere containing 5% CO2 at 37° C. Cells were seeded in a T75 flask (ca. 3×10^6 cells/ml) and passaged twice a week prior to performing the subsequent cell viability studies.
# Adherent H4IIE cells (obtained from the ATCC, and throughout the course of the study cells were checked for mycoplasma contamination using Mycoplasma stain kit, Myc1, Sigma) were grown to 80% confluence and trypsinised prior to assay. H4IIE cells were chosen for this study as they are standard cell lines used in toxicity studies. Cells were diluted 1:2 with ‘complete’ DMEM and seeded in a 24-well plate (1 mL per well). The cells were incubated at 37° C. in 5% CO2 for 24 h until ca. 95% confluence. The medium was removed. […] The cells were then harvested and all well contents were transferred to round-bottomed polypropylene tubes (5 mL). The cells were washed with cold DPBS, then stained with YO-PRO®-1 and PI (0.2 mL from a stock solution, whereby both dyes were diluted 1:1000 in cold DPBS, per well), and incubated on ice for 20 to 30 min. The cells were analyzed by flow cytometry (Cytomics FC 500 MPL System). Standard compensation was performed using single-colour stained cells. Negative controls using untreated cells were included. […]
# [4] = system: Pseudomonas aeruginosa (P. aeruginosa, ATCC 47085); assay: S16-antibiotic co-administration, synergy by Bliss Independence and HSA models; assay type: cell-based
# Experimental: as §1, §2
# [5] = system: Acinetobacter baumannii (A. baumannii, ATCC 19606); assay: as above; assay type: cell-based
# Experimental: as §1, §2
# [6] = system: Klebsiella pneumoniae (K. pneumoniae, ATCC 13883); assay: as above; assay type: cell-based
# Experimental: as §1, §2
# [7] = system: Escherichia coli (E. coli, ATCC 25922); assay: as above; assay type: cell-based
# Experimental: as §1, §2
# [8] = system: Pseudomonas aeruginosa (P. aeruginosa, ATCC 47085); assay: MBC determination (in vitro antimicrobial experiment, CFU counting); assay type: cell-based; settings: compound alone; P. aeruginosa (wild-type)
# Experimental: (§3) Freeze-dried cultures of Escherichia coli (E. coli, ATCC 25922), Klebsiella pneumoniae (K. pneumoniae, ATCC 13883), Pseudomonas aeruginosa (P. aeruginosa, ATCC 47085), Acinetobacter baumannii (A. baumannii, ATCC 19606), colistin and multidrug-resistant (CMDR) A. baumannii (FADDI-AB156), and CMDR P. aeruginosa (FADDI-PA067) were grown aerobically and maintained by passage at ambient temperature on horse blood agar (10% v/v defibrinated horse blood, 4.4% w/v Oxoid Blood Agar Base No. 2). Overnight cultures were made from transferring a colony (ca. half a loop) from the agar plates to culture tubes containing sterilized Luria-Bertani broth (LB, 1% w/v Bacto™ Tryptone, 1% w/v NaCl, 0.5% w/v Oxoid Yeast Extract) (20 mL). Bacterial cultures were incubated overnight at 37° C. with aeration and without agitation, with the exception of the two P. aeruginosa strains (ATCC 47085 and FADDI-PA067) which were cultured at 37° C. with aeration and agitation (150 rpm). On the next day, for E. coli, K. pneumonia, P. aeruginosa (ATCC 47085), and CMDR P. aeruginosa (FADDI-PA067), small aliquots (i.e., 0.5-3 mL) were taken from the culture tubes, further diluted with LB (20 mL), and incubated for 3-4 h at 37° C. with aeration before use. All bacterial cultures were cultured without agitation, with the exception of P. aeruginosa ATCC 47085 and FADDI-PA067 which were cultured with shaking at 150 rpm. For A. baumannii, an aliquot of 0.5 mL was taken from the overnight culture tube, further diluted with LB (200 mL), and incubated overnight at 37° C. with aeration before use.
# as §1
# [9] = system: Acinetobacter baumannii (A. baumannii, ATCC 19606); assay: as above; assay type: cell-based; settings: compound alone; A. baumannii (wild-type)
# Experimental: as §3, §1
# [10] = system: Klebsiella pneumoniae (K. pneumoniae, ATCC 13883); assay: as above; assay type: cell-based; settings: compound alone
# Experimental: as §3, §1
# [11] = system: Escherichia coli (E. coli, ATCC 25922); assay: as above; assay type: cell-based; settings: compound alone
# Experimental: as §3, §1
# [12] = system: CMDR A. baumannii (FADDI-AB156); assay: as above; assay type: cell-based, Acinetobacter baumannii; settings: compound alone
# Experimental: as §3, §1
# [13] = system: CMDR P. aeruginosa (FADDI-PA067); assay: as above; assay type: cell-based, Pseudomonas aeruginosa; settings: compound alone
# Experimental: as §3, §1
# [14] = S16 and antibiotic co-administered, each at MBC50, 3 h
# [15] = antibiotic in combination with S16, 3 h, Bliss Independence model
# [16] = antibiotic in combination with S16, 3 h, Highest Single Agent model
# [17] = co-administered S16 (at MBC50) and antibiotic, antibiotic concentration giving at least 2-log reduction in CFU/mL, 3 h
structure (smiles),measurement,setting,value
"O=[N+]([O-])[O-].[Ag+] [Ag^+, silver nitrate]",Interaction with S16 as evaluated by the Bliss Independence and HSA models (in words),[1]; 3 h time point,synergize
same,Fold reduction of MBC,[1]; MBCeff with S16 versus MBC alone,6.5 fold
same,MBC in combination,[1]; [14],11.8 µM
same,Antimicrobial activity on co-administration with S16 compared to compounds alone (log change in CFU/mL),"[1]; all compounds at MBC50, t=3 h",Enhanced antimicrobial activity
same,Synergistic? (Yes/No) Bliss*,[1]; [15],Yes
same,Synergistic? (Yes/No) HAS*,[1]; [16],Yes
same,"MBC in combination, MBCeff",[1]; [17],5.9^a μM
same,Interaction with S16 as evaluated by the Bliss Independence and HSA models (in words),[2]; 3 h time point,synergize
same,Fold reduction of MBC,[2]; MBCeff in combination versus MBC alone,3.7 fold
same,MBC in combination,[2]; [14],2.9 µM
same,Antimicrobial activity on co-administration with S16 compared to compounds alone (log change in CFU/mL),"[2]; all compounds at MBC50, t=3 h",Enhanced antimicrobial activity
same,Synergistic? (Yes/No) Bliss*,[2]; [15],Yes
same,Synergistic? (Yes/No) HAS*,[2]; [16],Yes
same,"MBC in combination, MBCeff",[2]; [17],2.9 μM and 2.9^a μM
same,"H4IIE cell viability reduced by, compared to the untreated control",[3],33%
same,Interaction with S16 as evaluated by the Bliss Independence and HSA models (in words),"[4]; P. aeruginosa wild-type, 3 h time point",synergize
same,Antimicrobial activity on co-administration with S16 compared to compounds alone (log change in CFU/mL),"[4]; P. aeruginosa wild-type, all compounds at MBC50, t=3 h",significantly enhanced antimicrobial activity
same,MBC in combination,"[4]; P. aeruginosa, S16 and antibiotic co-administered, each at MBC50, 3 h",0.5 µM
same,Synergistic? (Yes/No) Bliss*,"[4]; antibiotic in combination with S16, P. aeruginosa, 3 h, Bliss Independence model",Yes
same,Synergistic? (Yes/No) HAS*,"[4]; antibiotic in combination with S16, P. aeruginosa, 3 h, Highest Single Agent model",Yes
same,Interaction with S16 as evaluated by the Bliss Independence and HSA models (in words),"[5]; A. baumannii wild-type, 3 h time point",synergize
same,Antimicrobial activity on co-administration with S16 compared to compounds alone (log change in CFU/mL),"[5]; A. baumannii wild-type, all compounds at MBC50, t=3 h",significantly enhanced antimicrobial activity
same,MBC in combination,"[5]; A. baumannii, S16 and antibiotic co-administered, each at MBC50, 3 h",4.1 µM
same,Synergistic? (Yes/No) Bliss*,"[5]; antibiotic in combination with S16, A. baumannii, 3 h, Bliss Independence model",Yes
same,Synergistic? (Yes/No) HAS*,"[5]; antibiotic in combination with S16, A. baumannii, 3 h, Highest Single Agent model",Yes
same,Interaction with S16 as evaluated by the Bliss Independence and HSA models (in words),[6]; 3 h time point,synergize
same,MBC in combination,[6]; [14],5.3 µM
same,Antimicrobial activity on co-administration with S16 compared to compounds alone (log change in CFU/mL),"[6]; all compounds at MBC50, t=3 h",significantly enhanced antimicrobial activity
same,Synergistic? (Yes/No) Bliss*,[6]; [15],Yes
same,Synergistic? (Yes/No) HAS*,[6]; [16],Yes
same,Interaction with S16 as evaluated by the Bliss Independence and HSA models (in words),[7]; 3 h time point,synergize
same,MBC in combination,[7]; [14],1.8 µM
same,Antimicrobial activity on co-administration with S16 compared to compounds alone (log change in CFU/mL),"[7]; all compounds at MBC50, t=3 h",significantly enhanced antimicrobial activity
same,Synergistic? (Yes/No) Bliss*,[7]; [15],Yes
same,Synergistic? (Yes/No) HAS*,[7]; [16],Yes
same,MBC,[8],1.2 µM
same,MBC,[9],8.2 µM
same,MBC,[10],10.6 µM
same,MBC,[11],3.5 µM
same,MBC,[12],10.6 µM
same,MBC,[13],38.3 µM
